In patent US20240059693A1, “FUSED BICYCLIC PYRAZOLE DERIVATIVES AND METHODS OF USE THEREOF FOR THE TREATMENT OF HERPESVIRUSES” (Merck Sharp & Dohme LLC, priority 2020, published 2024):
Read-outs that look alike come from different tables or passages of the source.

What was measured:
HSV-1 Strain F = test: Viral qPCR assay, HSV-1 in MRC5 cells; assay type: cell-based, Herpes Simplex Virus type 1; details: read-out: HSV1 MRC5 Cell (EC50)
Protocol: (§1) MRCS cells, Vero cells, and MeWo cells were obtained from ATCC and were maintained at 37° C./5% CO2/90% relative humidity in Minimal Essential Medium with 10% fetal bovine serum, […] L-glutamine, 100 units/ml penicillin and 100 ug/ml streptomycin. Assay plates were prepared by dispensing compounds dissolved in DMSO into wells of 384 well collagen-coated plates using an ECHO acoustic dispenser. Each compound was tested in a 10-point, serial 3-fold dilution. Controls included uninfected cells and infected cells treated only with DMSO. Assays were initiated by mixing selected cells, in suspension, with virus, and dispensing 50 μl/well infected cells to pre-plated compounds. Plates were incubated at 37° C./5% CO2/90% relative humidity for ˜72 hrs to permit genomic replication, and infected cells were lysed by the addition of an equal volume of lysis buffer (10 mM Tris-HCl, pH8, 50 mM KCl, 2 mM MgCl2, 0.45% NP-40, 0.45% Tween-20, and 100 μg/ml proteinase K). An aliquot of the lysate was transferred to a 384-well PCR plate and incubated at 56° C. for 1 hour and then at 95° C. for 10 min. Levels of a viral gene and of the cellular control, PPIA (Thermo Fisher Assay ID=Hs04194521_s1), were measured in separate 10 μL qPCR assays using TaqMan® Gene Expression Master Mix (Applied Biosystems), and an 7900HT Fast Real-Time PCR System with 384-Well Block Module. 7-point, serial 10-fold dilutions of a plasmid standard were run on each plate to generate a standard curve, and genome copies numbers were calculated by plotting experimental Ct onto linear regression of the standard curve. Viral genome copy numbers were normalized by cellular control copy number, and compound effects were normalized to the window defined by the controls. Calculated % effects were fit using a 4-parameter algorithm, and EC50 was reported.
as §1, with “gene” for “gene and of the cellular control, PPIA (Thermo Fisher Assay ID=Hs04194521_s1),”, “in” for “in separate”, “Compound effects on viral” for “Viral”, “number” for “numbers were normalized by cellular control copy number, and compound effects”
(§2) VZV: Strain Street was maintained as an infected cell stock in MRC-5 cells. It was assayed in MeWo or MRCS cells and was used at 0.04-0.1 pfu/cell. The assays were performed in growth medium. Primer-probe set was Thermo Fisher Assay ID=AIPAEXQ. HSV-1: Strain F Street was assayed in Vero or MRCS cells and was used at 0.0005-0.004 pfu/cell in growth medium. Primer-probe set was Thermo Fisher Assay ID=AIBJZIB

HCMV Strain AD169 = test: Viral qPCR assay, HCMV in MRC-5 cells; assay type: cell-based, Human cytomegalovirus; details: read-out: CMV MRC5 Cell (EC50)
Protocol: as §1
as §1, with “gene” for “gene and of the cellular control, PPIA (Thermo Fisher Assay ID=Hs04194521_s1),”, “in” for “in separate”, “Compound effects on viral” for “Viral”, “number” for “numbers were normalized by cellular control copy number, and compound effects”
HCMV: Strain AD169 Street was assayed in MRC-5 cells and was used at 0.05-0.1 pfu/cell. The assays were performed in either growth media or in the same media with 50% fetal bovine serum. Primer-probe set was Thermo Fisher Assay ID=AIFATFK.

HSV2 = test: Viral qPCR assay, HSV2 in MRC5 cells; assay type: cell-based, Herpes Simplex Virus type 2; details: read-out: HSV2 MRC5 Cell (EC50)
Protocol: as §1
as §1, with “gene” for “gene and of the cellular control, PPIA (Thermo Fisher Assay ID=Hs04194521_s1),”, “in” for “in separate”, “Compound effects on viral” for “Viral”, “number” for “numbers were normalized by cellular control copy number, and compound effects”

VZV = test: Viral qPCR assay, VZV in MRC5 cells; assay type: cell-based, varicella zoster virus; details: read-out: VZV MRC5 Cell (IC50)
Protocol: as §1
as §1, with “gene” for “gene and of the cellular control, PPIA (Thermo Fisher Assay ID=Hs04194521_s1),”, “in” for “in separate”, “Compound effects on viral” for “Viral”, “number” for “numbers were normalized by cellular control copy number, and compound effects”
as §2

[1] = target: T1, Human cytomegalovirus DNA polymerase (Human cytomegalovirus, UniProt P08546); test: HCMV polymerase assay (AlphaLISA); assay type: biochemical; details: HCMV DNA polymerase 0.2 nM, 60 minutes at 37° C.; read-out: CMV (IC50)
T1 construct: made in house; host or cells: SF21 insect cells (baculovirus vector)
Protocol: Human cytomegalovirus and varicella zoster virus DNA polymerases were expressed via baculovirus vector in SF21 cells and purified. Heterodimeric nucleic acid substrate used in the herpesvirus polymerase reactions was generated by annealing a 59-mer template to a 17-mer digoxigenin-labeled primer. Polymerase (HCMV final concentration of 0.2 nM; VZV final concentration of 0.4 nM) was combined with an inhibitor compound or DMSO in assay buffer (10 mM HEPES, pH 7.5, 25 mM KCl, 25 mM NaCl, 5 mM MgCl2, 5% glycerol, 0.67 mg/ml bovine serum albuminutes, and 1 mM tris(2-carboxyethyl)phosphine), and this mixture was pre-incubated for 30 minutes at room temperature in 384-well microtiter plates. The polymerization reaction was initiated by the addition of template/primer substrate (final concentration: 1.6 nM), and dNTPs (final concentration: 24 nM dCTP, 24 nMdGTP, 16 nM dATP, 16 nM dTTP, and 0.8 nM biotin-dUTP). After 60 minutes incubation at 37° C., reactions were terminated with quench buffer (25 mM HEPES pH 7.5, 100 mM NaCl, 0.25% Tween-20, 12 mM EDTA, and 1 mg/ml bovine serum albumin). Incorporation of biotinylated UTP was detected with 2.5-ug/ml anti-DIG AlphaLISA acceptor beads and 5-10 ug/ml streptavidin AlphaLISA donor beads (Perkin Elmer). Compound effects were normalized to the window defined by the controls (DMSO only and pre-quenched wells) and were fit using a 4-parameter algorithm to report an IC50.

[2] = Human alphaherpesvirus 1, MRC5, 72 h
[3] = Human betaherpesvirus 5, AD169, MRC5, 72 h
[4] = Human alphaherpesvirus 2, MRC5, 72 h
[5] = Human alphaherpesvirus 3, MRC5, 72 h

T1 sequence (P08546 whole entry): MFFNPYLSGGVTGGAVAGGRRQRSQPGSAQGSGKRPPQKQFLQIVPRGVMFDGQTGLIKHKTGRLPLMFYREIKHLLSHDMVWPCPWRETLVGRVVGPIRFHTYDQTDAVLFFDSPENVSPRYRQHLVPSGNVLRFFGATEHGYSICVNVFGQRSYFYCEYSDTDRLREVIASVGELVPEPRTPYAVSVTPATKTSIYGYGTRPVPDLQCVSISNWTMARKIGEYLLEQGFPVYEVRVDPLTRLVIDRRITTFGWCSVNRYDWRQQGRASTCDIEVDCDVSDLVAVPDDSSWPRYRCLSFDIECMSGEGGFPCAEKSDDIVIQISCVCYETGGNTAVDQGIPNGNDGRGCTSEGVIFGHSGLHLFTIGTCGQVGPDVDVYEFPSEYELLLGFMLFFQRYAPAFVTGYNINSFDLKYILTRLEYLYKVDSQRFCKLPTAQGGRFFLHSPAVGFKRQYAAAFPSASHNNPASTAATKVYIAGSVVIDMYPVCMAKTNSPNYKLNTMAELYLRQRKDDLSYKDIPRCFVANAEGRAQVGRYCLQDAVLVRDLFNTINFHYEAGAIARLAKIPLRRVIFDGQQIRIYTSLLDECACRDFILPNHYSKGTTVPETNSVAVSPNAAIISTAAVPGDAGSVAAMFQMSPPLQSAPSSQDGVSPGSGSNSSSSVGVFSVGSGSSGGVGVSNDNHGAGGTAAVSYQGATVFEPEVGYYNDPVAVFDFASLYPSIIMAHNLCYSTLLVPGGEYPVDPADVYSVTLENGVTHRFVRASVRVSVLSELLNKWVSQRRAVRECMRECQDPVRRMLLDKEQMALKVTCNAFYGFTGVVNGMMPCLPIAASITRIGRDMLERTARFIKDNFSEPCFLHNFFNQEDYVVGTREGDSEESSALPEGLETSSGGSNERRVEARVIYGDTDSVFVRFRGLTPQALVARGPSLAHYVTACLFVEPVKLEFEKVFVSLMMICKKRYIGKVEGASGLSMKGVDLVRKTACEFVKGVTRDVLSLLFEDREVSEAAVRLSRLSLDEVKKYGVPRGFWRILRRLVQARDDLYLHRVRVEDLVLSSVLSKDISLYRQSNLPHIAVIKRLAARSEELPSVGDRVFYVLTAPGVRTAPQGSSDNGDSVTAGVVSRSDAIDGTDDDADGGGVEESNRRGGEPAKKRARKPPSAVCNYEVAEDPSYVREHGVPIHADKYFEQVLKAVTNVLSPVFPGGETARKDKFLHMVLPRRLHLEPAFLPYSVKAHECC

| SMILES | EC50 (HSV-1 Strain F; [2]) [µM] | EC50 (HCMV Strain AD169; [3]) [µM] | EC50 (HSV2; [4]) [µM] | IC50 (VZV; [5]) [µM] | IC50 [1] [µM] | EC50 (HSV-1 Strain F; ~72 hrs) [µM] | EC50 (HCMV Strain AD169; MRC5 cells, ~72 hrs) [µM] | EC50 (HSV2; ~72 hrs) [µM] | IC50 (VZV; ~72 hrs) [µM] |
| --- | --- | --- | --- | --- | --- | --- | --- | --- | --- |
| O=C1CC[C@@H](CN2Cc3c(C(=O)NCc4ccc(Cl)cc4)nn(C(F)F)c3C2)N1 [Compound 45] | 1.99 | 0.798 | 1.04 | 1.03 | 0.0378 | – | – | – | – |
| CC1c2c(c(C(=O)NCc3ccc(Cl)cc3)nn2C)CN1C(C)C1CCC(=O)N1 (centres unmarked) [Compound 111] | – | – | – | – | 0.0579 | 0.557 | 0.125 | 0.248 | 0.402 |
| Cn1nc(C(=O)NCc2ccc(Cl)cc2)c2c1CN(CC13CC1CC(=O)N3)C2 (centres unmarked) [Compound 95] | 3.3 | 0.632 | 3.72 | 4.55 | 0.127 | – | – | – | – |
| CC(C1CCC(=O)N1)N1Cc2c(C(=O)NCc3ccc(Cl)cc3)nn(C)c2C1 (single isomer, unassigned) [Compound 2] | – | – | – | – | 0.00981 | 0.271 | 0.176 | 0.119 | 0.182 |
| Cc1csc(-n2nc(C(=O)NCc3ccc(Cl)cc3)c3c2CN(C[C@H]2CCC(=O)N2)C3)n1 [Compound 12] | 0.16 | 0.175 | 0.0448 | 0.22 | 0.023 | – | – | – | – |
| O=C1CC[C@@H](CN2Cc3c(C(=O)NCc4ccc(Cl)cc4)nn(C4CCOC4)c3C2)N1 (single isomer, unassigned) [Compound 43] | 3.55 | – | 3.49 | 2.64 | 0.0582 | – | 3.29 | – | – |
| CC1c2c(c(C(=O)NCc3ccc(Cl)cc3)nn2C)CN1C(C)C1CCC(=O)N1 (centres unmarked) [Compound 112] | – | – | – | – | 0.105 | 0.293 | 0.148 | 0.233 | 0.263 |
| Cn1nc(C(=O)NCc2ccc(Cl)cc2)c2c1CN(C[C@H]1CC(F)C(=O)N1)C2 (some centres unmarked) [Compound 78] | 3.03 | 2.88 | 2.22 | 2.87 | 0.252 | – | – | – | – |
| Cn1nc(C(=O)NCc2ccc(Cl)cc2)c2c1CN(C[C@@H]1CC(F)(F)C(=O)N1)C2 [Compound 82] | 2.88 | 0.25 | 1.02 | 1.45 | 0.0603 | – | – | – | – |
| O=C1CC[C@@H](CN2Cc3c(C(=O)NCc4ccc(Cl)cc4)nn(-c4nccs4)c3C2)N1 [Compound 42] | 0.996 | 0.94 | 1.1 | 1.05 | 0.0259 | – | – | – | – |
| Cc1nc(-n2nc(C(=O)NCc3ccc(Cl)cc3)c3c2CN(C[C@H]2CCC(=O)N2)C3)sc1C [Compound 10] | 0.189 | 0.434 | 0.124 | 0.172 | 0.0209 | – | – | – | – |
| Cn1nc(C(=O)NCc2ccc(Cl)cc2)c2c1CN(C[C@@H]1CC(F)C(=O)N1)C2 (some centres unmarked) [Compound 79] | 1.18 | 0.232 | 0.935 | 1.17 | 0.0696 | – | – | – | – |
| O=C1CC[C@H](CN2Cc3c(C(=O)NCc4ccc(Cl)cc4)nn(-c4nccs4)c3C2)N1 [Compound 7] | 0.118 | 0.142 | 0.0866 | 0.191 | 0.00982 | – | – | – | – |
| O=C1CC[C@H](CN2Cc3c(C(=O)NCc4ccc(Cl)cc4)nn(-c4ncco4)c3C2)N1 [Compound 23] | 0.224 | 0.13 | 0.136 | 0.325 | 0.0172 | – | – | – | – |
| O=C1CC[C@H](CN2Cc3c(C(=O)NCc4ccc(Cl)cc4)nn(C4CCOC4)c3C2)N1 (single isomer, unassigned) [Compound 33] | – | – | – | – | 0.0525 | 1.56 | 0.628 | 1.41 | 1.96 |
| Cc1cn(C)c(-n2nc(C(=O)NCc3ccc(Cl)cc3)c3c2CN(C[C@H]2CCC(=O)N2)C3)n1 [Compound 19] | 0.65 | 0.399 | 0.333 | 0.535 | 0.0906 | – | – | – | – |
| CCC1c2c(c(C(=O)NCc3ccc(Cl)cc3)nn2C)CN1C[C@@H]1CCC(=O)N1 (single isomer, unassigned) [Compound 103] | – | – | – | – | 0.0174 | 0.172 | 0.157 | 0.063 | 0.104 |
| Cn1nc(C(=O)NCc2ccc(Cl)cc2)c2c1CN(C[C@@H]1CCC(=O)N1)C2 [Compound 47] | 0.878 | 0.328 | 0.611 | 0.657 | 0.0381 | – | – | – | – |
| Cn1nc(C(=O)NCc2ccc(Cl)cc2)c2c1C1(CCC1)N(C[C@H]1CCC(=O)N1)C2 [Compound 124] | – | – | – | – | 0.141 | 3.36 | 0.581 | 2.35 | 2.16 |
| CC(C1CC(F)C(=O)N1)N1Cc2c(C(=O)NCc3ccc(Cl)cc3)nn(C)c2C1 (single isomer, unassigned) [Compound 73] | 0.614 | 0.134 | 0.464 | 0.534 | 0.0112 | – | – | – | – |
| CC(=O)OCC1c2c(c(C(=O)NCc3ccc(Cl)cc3)nn2C)CN1CC1CCC(=O)N1 (single isomer, unassigned) [Compound 120] | – | – | – | – | 0.121 | 2.74 | 0.642 | 2.02 | 1.78 |
| O=C1CC[C@H](CN2Cc3c(C(=O)NCc4ccc(Cl)cc4)nn(-c4ccccn4)c3C2)N1 [Compound 13] | 0.284 | 0.547 | 0.0746 | 0.207 | 0.0258 | – | – | – | – |
